Reference: patent US9045445B2, “Glycine transporter-1 inhibitors, methods of making them, and uses thereof” (Albany Molecular Research, Inc., priority 2010, dated 2015)
Structures can show the parent of a compound that is named as a salt.

These compounds were tested against T1, glycine transporter-1 (GlyT-1) (Homo sapiens, UniProt P48067) (assay: [14C]glycine uptake assay in JAR cells endogenously expressing GlyT-1 (scintillation proximity)). Details: JAR cells, [14C]glycine 5 μM, 3 hour incubation; read-out: GlyT-1 IC50.
T1 construct: JAR cells (ATCC#HTB-144), which endogenously express GlyT-1; host or cells: JAR human choriocarcinoma cells
T1 sequence (P48067 1-706): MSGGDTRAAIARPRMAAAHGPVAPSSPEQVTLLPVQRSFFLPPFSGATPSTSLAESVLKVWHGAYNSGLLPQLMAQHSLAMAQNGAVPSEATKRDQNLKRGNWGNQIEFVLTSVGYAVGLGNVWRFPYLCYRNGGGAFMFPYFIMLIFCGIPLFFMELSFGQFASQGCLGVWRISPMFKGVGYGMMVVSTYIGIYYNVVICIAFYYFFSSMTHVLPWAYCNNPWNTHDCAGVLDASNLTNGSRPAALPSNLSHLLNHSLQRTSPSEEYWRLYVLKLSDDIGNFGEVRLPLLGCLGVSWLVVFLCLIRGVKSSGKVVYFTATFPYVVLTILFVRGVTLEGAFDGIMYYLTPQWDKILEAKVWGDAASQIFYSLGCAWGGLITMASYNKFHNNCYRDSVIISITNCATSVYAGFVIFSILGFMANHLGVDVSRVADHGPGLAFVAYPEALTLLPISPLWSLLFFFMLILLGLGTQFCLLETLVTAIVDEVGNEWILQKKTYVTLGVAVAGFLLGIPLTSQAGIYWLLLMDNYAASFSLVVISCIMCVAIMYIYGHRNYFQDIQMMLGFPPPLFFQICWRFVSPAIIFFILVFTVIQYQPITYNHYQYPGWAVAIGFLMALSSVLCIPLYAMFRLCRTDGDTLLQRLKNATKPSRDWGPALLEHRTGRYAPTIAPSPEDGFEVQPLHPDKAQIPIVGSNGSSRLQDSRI
Assay type: cell-based
Summary of the method: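 Human choriocarcinoma JAR cells (endogenous GlyT-1) attached overnight, then pre-incubated 10 min at room temperature with compound in pH 7.4 Hepes uptake buffer containing 5 mM alanine and 0.75% DMSO. Uptake of 5 μM [14C]glycine over 3 h at 37 °C read by scintillation proximity; IC50 from four-parameter fit of nine-point curves.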

Compound | IC50 [µM]
Cn1cnc(S(=O)(=O)N2CCN(C3(CNC(=O)c4c(F)cccc4OC(F)(F)F)CCC(F)(F)CC3)CC2)c1 [compound 186, N-((4,4-Difluoro-1-(4-(1-methyl-1H-imidazol-4-ylsulfonyl)piperazin-1-yl)cyclohexyl)methyl)-2-fluoro-6-(trifluoromethoxy) benzamide Hydrochloride] | 0.001
CN(C)S(=O)(=O)N1CCN(C2(CNC(=O)c3ccc(C(F)(F)F)cc3Cl)CCC(F)(F)CC2)CC1 [compound 273, 2-Chloro-N-((1-(4-(N,N-dimethylsulfamoyl)piperazin-1-yl)-4,4-difluorocyclohexyl)methyl)-4-(trifluoromethyl)benzamide Hydrochloride] | 0.35
CCCS(=O)(=O)N1CCN(C2(CNC(=O)c3ccc(C(C)C)cc3)CCCCC2)CC1 [compound 33, 4-Isopropyl-N-((1-(4-(propylsulfonyl)piperazin-1-yl)cyclohexyl)methyl) benzamide Hydrochloride] | 0.488
Cn1ccc(S(=O)(=O)N2CCN(C3(CNC(=O)c4ccc(C(F)(F)F)cc4Cl)CCC(F)(F)CC3)CC2)n1 [compound 283, 2-Chloro-N-((4,4-difluoro-1-(4-(1-methyl-1H-pyrazol-3-ylsulfonyl)piperazin-1-yl)cyclohexyl)methyl)-4-(trifluoromethyl)benzamide Hydrochloride] | 2.41
CCCS(=O)(=O)N1CCN(C2(CNC(=O)c3ccc(F)cc3Cl)CCC(F)(F)CC2)CC1 [compound 154, 2-Chloro-N-((4,4-difluoro-1-(4-(propylsulfonyl)piperazin-1-yl)cyclohexyl)methyl)-4-fluorobenzamide Hydrochloride] | 0.038
CCCS(=O)(=O)N1CCN(C2(CNC(=O)c3c(F)cc(F)cc3F)CCC(F)(F)CC2)CC1 [compound 144, N-((4,4-Difluoro-1-(4-(propylsulfonyl)piperazin-1-yl)cyclohexyl)methyl)-2,4,6-trifluorobenzamide Hydrochloride] | 0.046
CCCS(=O)(=O)N1CCN(C2(CNC(=O)c3c(Cl)ccc(C(F)(F)F)c3Cl)CCC(F)(F)CC2)CC1 [compound 265, 2,6-Dichloro-N-((4,4-difluoro-1-(4-(propylsulfonyl)piperazin-1-yl)cyclohexyl)methyl)-3-(trifluoromethyl) benzamide Hydrochloride] | 0.228
CCS(=O)(=O)N1CCN(C2(CNC(=O)c3c(Cl)cc(Cl)cc3Cl)CCC(F)(F)CC2)CC1 [compound 209, 2,4,6-Trichloro-N-((1-(4-(ethylsulfonyl)piperazin-1-yl)-4,4-difluorocyclohexyl)methyl) benzamide Hydrochloride] | 0.083
N-((4,4-Difluoro-1-(1-(1- methyl-1H-1,2,3-triazol-4- ylsulfonyl)piperidin-4- yl)cyclohexyl)methyl)-2,4- bis(trifluoromethyl) benzamide [compound 274] | 0.003
CC(=O)CS(=O)(=O)N1CCN(C2(CNC(=O)c3ccc(C(F)(F)F)cc3Cl)CCC(F)(F)CC2)CC1 [compound 280, 2-Chloro-N-((4,4-difluoro-1-(4-(2-oxopropylsulfonyl)piper-azin-1-yl)cyclohexyl)methyl)-4-(trifluoromethyl) benzamide Hydrochloride] | 0.061
Cn1cnc(S(=O)(=O)N2CCN(C3(CNC(=O)c4ccc(Cl)cc4Cl)CCC(F)(F)CC3)CC2)c1 [compound 178, 2,4-Dichloro-N-((4,4-difluoro-1-(4-(1-methyl-1H-imidazol-4-ylsulfonyl)piperazin-1-yl)cyclohexyl)methyl) benzamide Hydrochloride] | 0.005
Cc1cc(F)c(C(=O)NCC2(N3CCN(S(=O)(=O)c4cn(C)nn4)CC3)CCC(F)(F)CC2)cc1F [compound 239, N-((4,4-Difluoro-1-(4-(1-methyl-1H-1,2,3-triazol-4-ylsulfonyl)piperazin-1-yl)cyclohexyl)methyl)-2,5-difluoro-4-methylbenz-amide Hydrochloride] | 0.02
CCCS(=O)(=O)N1CCN(C2(CNC(=O)c3ccc(Cl)cc3OC(F)F)CCC(F)(F)CC2)CC1 [compound 249, 4-Chloro-N-((4,4-difluoro-1-(4-(propylsulfonyl)piperazin-1-yl)cyclohexyl)methyl)-2-(difluoromethoxy) benzamide Hydrochloride] | 0.037
Cn1cc(S(=O)(=O)N2CCN(C3(CNC(=O)c4c(F)cc(Cl)cc4Cl)CCC(F)(F)CC3)CC2)nn1 [compound 241, 2,4-Dichloro-N-((4,4-difluoro-1-(4-(1-methyl-1H-1,2,3-triazol-4-ylsulfonyl)piperazin-1-yl)cyclohexyl)methyl)-6-fluorobenzamide Hydrochloride] | 0.001
COc1ccccc1C(=O)NCC1(N2CCN(S(=O)(=O)c3cn(C)cn3)CC2)CCC(F)(F)CC1 [compound 177, N-((4,4-Difluoro-1-(4-(1-methyl-1H-imidazol-4-ylsulfonyl)piperazin-1-yl)cyclohexyl)methyl)-2-methoxybenzamide Hydrochloride] | 0.034
Cn1cnc(S(=O)(=O)N2CCN(C3(CNC(=O)c4c(Cl)cccc4Cl)CCC(F)(F)CC3)CC2)c1 [compound 174, 2,6-Dichloro-N-((4,4-difluoro-1-(4-(1-methyl-1H-imidazol-4-ylsulfonyl)piperazin-1-yl)cyclohexyl)methyl) benzamide Hydrochloride] | 0.005
CCCS(=O)(=O)N1CCN(C2(C(C)NC(=O)c3c(F)cccc3F)CCC(F)(F)CC2)CC1 (stereo not drawn) [compound 197, N-(1-(4,4-Difluoro-1-(4-(propylsulfonyl)piperazin-1-yl)cyclohexyl)ethyl)-2,6-difluorobenzamide Hydrochloride] | 0.304
CCCS(=O)(=O)N1CCN(C2(CNC(=O)c3c(C)cccc3OC)CCCCC2)CC1 [compound 3, 2-Methoxy-6-methyl-N-((1-(4-(propylsulfonyl)piperazin-1-yl)cyclohexyl)methyl) benzamide Hydrochloride] | 0.541
CCCS(=O)(=O)N1CCN(C2(CNC(=O)c3c(Cl)cccc3Cl)CCCCC2)CC1 [compound 43, 2,6-Dichloro-N-((1-(4-(propylsulfonyl)piperazin-1-yl)cyclohexyl)methyl) benzamide Hydrochloride] | 0.012
Cn1cnc(S(=O)(=O)N2CCN(C3(CNC(=O)c4c(Cl)cccc4OC(F)(F)F)CCC(F)(F)CC3)CC2)c1 [compound 187, 2-Chloro-N-((4,4-difluoro-1-(4-(1-methyl-1H-imidazol-4-ylsulfonyl)piperazin-1-yl)cyclohexyl)methyl)-6-(trifluoromethoxy) benzamide Hydrochloride] | 0.001
Cn1cnc(S(=O)(=O)N2CCN(C3(CNC(=O)c4ccc(C(F)(F)F)cc4Cl)CCC(F)(F)CC3)CC2)c1 [compound 171, N-((4,4-Difluoro-1-(4-(1-methyl-1H-imidazol-4-ylsulfonyl)piperazin-1-yl)cyclohexyl)methyl)-2-chloro-4-(trifluoromethyl)benzamide Hydrochloride] | 0.002
Cn1cc(S(=O)(=O)N2CCN(C3(CNC(=O)c4c(Cl)cccc4OC(F)(F)F)CCC(F)(F)CC3)CC2)nn1 [compound 191, 2-Chloro-N-((4,4-difluoro-1-(4-(1-methyl-1H-1,2,3-triazol-4-ylsulfonyl)piperazin-1-yl)cyclohexyl)methyl)-6-(trifluoromethoxy) benzamide Hydrochloride] | 0.001
O=C(NCC1(N2CCN(S(=O)(=O)N3CCC3)CC2)CCC(F)(F)CC1)c1ccc(C(F)(F)F)cc1Cl [compound 271, N-((1-(4-(azetidin-1-ylsulfonyl)piperazin-1-yl)-4,4difluorocyclohexyl)methyl)-2-chloro-4-(trifluoromethyl)benzamide Hydrochloride] | 0.35
CCCS(=O)(=O)N1CCN(C2(CNC(=O)c3ccc(F)cc3F)CCC(F)(F)CC2)CC1 [compound 140, N-((4,4-Difluoro-1-(4-(propylsulfonyl)piperazin-1-yl)cyclohexyl)methyl)-2,4-difluorobenzamide Hydrochloride] | 0.195
CCCS(=O)(=O)N1CCN(C2(C(C)NC(=O)c3c(F)cccc3F)CCC(F)(F)CC2)CC1 (stereo not drawn) [compound 196, N-(1-(4,4-Difluoro-1-(4-(propylsulfonyl)piperazin-1-yl)cyclohexyl)ethyl)-2,6-difluorobenzamide Hydrochloride] | 3.78
CCCS(=O)(=O)N1CCN(C2(CNC(=O)c3ccc(F)cc3C)CCCCC2)CC1 [compound 10, 4-Fluoro-2-methyl-N-((1-(4-(propylsulfonyl)piperazin-1-yl)cyclohexyl)methyl) benzamide Hydrochloride] | 0.028
CCCS(=O)(=O)N1CCN(C2(CNC(=O)c3c(F)cccc3F)CCCOCC2)CC1 (stereo not drawn) [compound 268, 2,6-Difluoro-N-((4-(4-(propylsulfonyl)piperazin-1-yl)oxepan-4-yl)methyl)benzamide Hydrochloride] | 0.238
